The record followed here is patent EP1214397B1, “METHOD FOR THE SELECTIVE PROTECTION OF PROLIFERATING NORMAL CELLS AND THE SELECTIVE ERADICATION OF TUMOR CELLS HAVING AN INACTIVE P53 PATHWAY” (UNIVERSITA' DEGLI STUDI DI ROMA "LA SAPIENZA", priority 1999, dated 2001).

In assay [1] the test system is human lung fibroblasts transformed with E7 (HF E7). Nature of the assay: Nuclei number state after cytochalasin D (Example 2). Conditions: 400 nM CD for 72 h. The class given is cell-based. The procedure: (§1) Each cell culture was plated on 35mm plates at a 1×10^4cells/plate density, under the following conditions considered herein as standard conditions. Cells were grown on a plastic substrate (Falcon-BD), in a culture medium made of Dulbecco's modified Eagle's Medium supplemented with 2mM L-glutamine, antibiotics, 10% fetal bovine serum, at 37°C with 5% CO2 and 90% humidity. The following assays have been therefore carried out.
In an initial time of 12 hours c.ca (step common also to the other assays herein reported) cells were allowed to grow up, but within a density allowing their proliferation, thus ensuring the utmost reliability of the assay result, that otherwise could be altered by cells arrested for reasons other than compound administration. After this first step the following administrations have been carried out.
E6 is in fact an oncogene, the product thereof being capable of sequestering and inhibiting the p53 function, whereas E7 is another oncogene, the product thereof being capable of sequestering the Rb function. This assay series accordingly allows in fact to extend also to human cells the growth arrest, at the binucleate stage, by CD, as due to an active p53 pathway in normal cells, and at the same time it confirms the non-implication of Rb therein.
After the initial time of 12 h c.ca (see above) the following assays have been in particular carried out.
In a third assay series 400 nM CD for 72 h (T0-T72) and 0.11% DMSO for 72 h (T0-T72) as a control thereof, have been administered to human lung fibroblasts transformed with E7 (HF E7).

In assay [2] the test system is mouse embryofibroblast (MEF) cells knock out for Rb. Kind of assay: Nuclei number state after cytochalasin D in knock-out cells (Example 1). It counts as cell-based. The settings on record: 400 nM CD for 72 h.
From the text: (§2) In order to verify which molecular factors cause multinucleation in tumor cells and thereby identify tumor cells and tumor forms where binucleation/multinucleation differential status is applicable to, an assay series directed to verify such forms to be ascribable to the loss of one or more genes regulating cell functions, has been carried out. Such assays have been in particular carried out on cells deriving from mice knock-out for the sole Rb (retinoblastoma), p21 or p53 function.
as §1
(§3) In an initial time of 12 hours c.ca (step common also to the other assays herein reported) cells were allowed to grow up, but within a density allowing their proliferation, thus ensuring the utmost reliability of the assay result, that otherwise could be altered by cells arrested for reasons other than compound administration. […]
(§4) The administration was carried out on strictly proliferating cells. After treatment, cells were processed and analyzed.

In assay [3] the test system is mouse embryofibroblast (MEF) cells knock out for p21. The assay is described as above. Conditions: 400 nM CD for 72 h. The class given is cell-based.
From the text: as §2, §1, §3, §4

Assay [4] concerns MEF. Nature of the assay: Nuclei number state after cytochalasin D, wild-type control cells (Example 1). The class given is cell-based, mouse. Conditions: CD for 72 h.
From the text: as §2, §1, §3, §4

For assay [5], the system named is dermal fibroblasts (MDF). The description is as above. It counts as cell-based, mouse. The settings on record: CD for 72 h.
From the text: as §2, §1, §3, §4

For assay [6], the system named is C3H10T1/2v-src/v-myc. Kind of assay: Focus-forming assay, culture of tumor cells alone (Examples 3, 9). It counts as cell-based, mouse. The settings on record: C3H10T1/2 v-src/v-myc alone, 5×10^2 cells per plate, percentage of treated with respect to untreated (=100), 400 nM CD T0-T84, class B drug T24-T72 (40 µM 3FT, 80 µM 2ClAd, 40µM Ara C).
Assay [7] has as its system L cells. Nature of the assay: Colony formation assay, monoculture (Example 4). It counts as cell-based. The settings on record: 5×10^2 cells, 400 nM CD T0-T84, 40 µM 3FT T24-T72. From the text: In order to quantify the effects of the combined CD/3FT use of the above example 3, the first, second and third assay series described in example 4 has been carried out on monocultures at a cell density allowing countable colonies.
The culture conditions, compounds concentrations, and treatments are the same described in example 3, with the exception of the cell system used have been for the first assay series a monoculture of C3H 10T1/2 cells at the clonal densities of 1×10^3, 5×10^3 and 1×10^4, for the second assay series a monoculture of C3H 10T1/2v-src/v-myc cells at the clonal densities of 5×10^2, 1×10^3 and 5×10^3, and for the third assay series a monoculture of L cells at the clonal densities of 5×10^2, 1×10^3 and 5×10^3.

The subject of assay [8] is C3H10T1/2v-src/v-myc. Kind of assay: Inhibition of cytodieresis and DNA replication, nucleation state and BrdU uptake (Examples 5, 7). It counts as cell-based, mouse. On the procedure:
(§5) Each cell culture was plated on 35mm plates at a 1×10^4cells/plate density, under the standard conditions described in example 1.
(§6) In a control assay series thereof the sole BrdU and 0.11% DMSO, have been administered to C3H10T1/2 and in C3H10T1/2/v-src-/myc cells respectively, for 24h (T0-T24) as a control of the proliferation phase.
(§7) In each of the above assays CD and BrdU concentrations are the same, namely 400 nM and […] respectively. The administration was carried out on strictly proliferating cells. The contemporaneous measurement of BrdU uptake and %S has ensured the highest stringency of results on DNA replication. Percentage of mononucleate, binucleate, tri/tetranucleate and with >4 nuclei resulting cells has been also measured. After treatment, cells have been processed and analyzed as reported in reference 18.
(§8) In particular the first assay series of example 5 has been carried out with 650 nM Latrunculin B, 700 nM Jasplakinolide, and 100 nM condramide B instead of CD. The second assay series of example 5 has been carried out with 16 µM 13,14,21,22-tetrahydrocytochalasin B, 2 µM 21,22-dihydrocytochalasin B, 1 µM deoxyphomin, 4 µM Cytochalasin F (CF) 8 µM Cytochalasin V (CV) , and 0,5 µM CD as a control on MEF cells.

Assay [9] has as its system C3H10T1/2. Described as above. The class given is cell-based, mouse. On the procedure: as §5, §6, §7, §8
Assay [10] deals with C3H 10T1/2(v-src/v-myc). Kind of assay: Colony forming assay, interference with 3FT toxic effects on tumor cells (Example 6). It counts as cell-based, mouse. Conditions: 5×10^2 cell/60mm; 400 nM CD or 3 µM CB T0-T84; 30 µM 3FT T24-T72; untreated 111. The procedure: In order to verify any possible interference between CD and 3FT actions on tumor cells, a series of colony forming assays has been carried out on C3H 10T1/2(v-src/v-myc).
The cells have been therefore plated on 60mm plates at a 5×10^2 cell/60mm density, at the culture conditions described in example 3, and the initial time of 12 hours have been subjected to the following treatments.
After the above administrations, cells were treated as described in example 3.

Assay [11] relates to normal cells. Nature of the assay: Dose/response: concentration arresting normal cells in the intermitotic phase (CAP). The class given is cell-based. The settings on record: standard conditions. On the procedure:
It generally results in cell cycle arrest at the binucleate stage in at least 40% of class A compounds treated proliferating normal cells, using the minimal drug concentration (i.e. sufficient to reversible induce its effects, on target cells, without causing significant damage, experimentally defined by dose/response curves), giving the above result without significant toxicity and an incubation time generally ranging from 12 to 48 hours depending on cell type.
As to the CAP parameter, the corresponding value is a class A compound concentration causing the arrest of at least the 40% of normal cells in the intermitotic stage; such concentration is experimental deduced by dose/response experiments that define the appropriate value range for different cell types and compounds.
For the above class A compounds, under standard conditions this value ranges within 1 nM to 40 µM concentrations.. […]
In the light of these tests, the CAP and CACT values to be assigned to several class A compounds as the concentration range yielding the cytodieresis arrest, and, within said concentration range, the value of the minimum concentration required for attaining this effect, forming the preferred embodiment, has been determined. […]

Values joined by “and” are separate entries in the source; they are usually repeats but may differ in a detail not shown here. Equal entries are not always repeated.

As to `C=C1[C@@H](C)[C@H]2[C@H](Cc3ccccc3)NC(=O)[C@]23[C@H](OC(C)=O)/C=C/[C@@](C)(O)C(=O)[C@@H](C)C/C=C/[C@H]3[C@@H]1O` [cytochalasin D], the “%>4N” value in assay [1] (>4 nuclei cells) stood at 1%. For the same compound, the “% 2N” value turned out to be 42% in assay [1] (binucleate cells); 35% in [8] (C3H10T1/2v-src/v-myc, drug T0-T48, concentration printed with the drug (CD 400 nM)); 67% in assay [9] (C3H10T1/2, drug T0-T48, concentration printed with the drug (CD 400 nM)). The “%1N” value in assay [1] (mononucleate cells) is 54%. Further, the “%3-4N” value in [1] (tri-tetranucleate cells) is given as 3%. Besides, the nuclei number state result in [2], in assay [3], in [4] and in [5] was “arrest into a binucleate stage” in each case. The “number of transformation foci” value was “slight decrease” in [6]; 24 and 28 in assay [6] (listed as CD). This compound returned a number of colonies in assay [7] of 55. In addition, the “percentage of cells entering in S phase (%S)” value is recorded as 88% in [8] (transformed cells, 400 nM CD T0-T48, BrdU T24-48) and 23% in assay [9] (normal cells, 400 nM CD T0-T48, BrdU T24-48). For the same compound, the “three-tetranucleate or even with >4 nuclei cells” value in assay [8] (tumor cells, 400 nM CD T0-T48) was 47%; in assay [9] (normal cells, 400 nM CD T0-T48), 6%. Moreover, the “plated cells still capable of uptaking the BrdU (reversibility)” value in assay [9] (CD T0 to T48, rest T48 to T72, BrdU T72 to T96, control 97%) was 96%. Also, in assay [9] (CD T0 to T48, rest T48 to T72, BrdU T72 to T96, control 98%), the “mononucleate cells after drug removal (reversibility)” value is reported as 92%. The Colonies in [10] worked out at 46. The “CAP, minimum functional concentration for arrest in intermitotic phase of normal cells” value in assay [11] amounted to 400 nM.
